According to PubChem BioAssay AID214 (DTP/NCI, 2004):
Where “and” joins values, the source holds several entries; their conditions need not be identical. Identical values can stand only once. Results filed as inconclusive are left out.

System: B6C3F1 mice, colon carcinoma 38 s.c., T/C
Experiment: NCI In Vivo Anticancer Drug Screen. Data for tumor model Colon Carcinoma 38 (subcutaneous) in B6C3F1 mice
Conditions: endpoint: median tumor weight (est.), higher = larger tumour
Experimental: The antitumor activity of compounds was measured in mice bearing transplantable tumors. Survival or tumor size were measured and the results are expressed as the measurement made in the treated group (T) divided by the measurement made in the vehicle treated control group (C). The tumor model used in this assay is Colon Carcinoma 38 (subcutaneous) in B6C3F1 mice

[1] = dose: 50.0 mg/kg/injection, schedule: Q07DX002 (ip), vehicle: Klucel (hydroxypropylcellulose) (HPC)
[2] = dose: 100.0 mg/kg/injection, schedule: Q07DX002 (ip), vehicle: Klucel (hydroxypropylcellulose) (HPC)
[3] = dose: 100.0 mg/kg/injection, schedule: Q07DX002 (ip), vehicle: saline
[4] = dose: 200.0 mg/kg/injection, schedule: Q07DX002 (ip), vehicle: saline
[5] = dose: 12.5 mg/kg/injection, schedule: Q07DX002 (ip), vehicle: saline with Tween-80
[6] = dose: 25.0 mg/kg/injection, schedule: Q07DX002 (ip), vehicle: saline with Tween-80
[7] = dose: 50.0 mg/kg/injection, schedule: Q07DX002 (ip), vehicle: saline with Tween-80
[8] = dose: 200.0 mg/kg/injection, schedule: Q07DX002 (ip), vehicle: saline with Tween-80
[9] = dose: 100.0 mg/kg/injection, schedule: Q07DX002 (ip), vehicle: saline with Tween-80
[10] = dose: 25.0 mg/kg/injection, schedule: Q07DX002 (ip), vehicle: Klucel (hydroxypropylcellulose) (HPC)
[11] = dose: 400.0 mg/kg/injection, schedule: Q07DX002 (ip), vehicle: Klucel (hydroxypropylcellulose) (HPC)
[12] = dose: 200.0 mg/kg/injection, schedule: Q07DX002 (ip), vehicle: Klucel (hydroxypropylcellulose) (HPC)
[13] = dose: 800.0 mg/kg/injection, schedule: Q07DX002 (ip), vehicle: Klucel (hydroxypropylcellulose) (HPC)

CC1CCC(NC(=O)N(CCCl)N=O)CC1 (configuration not stated)
T/C (dose: 4.0 mg/kg/injection, schedule: Q07DX002 (ip), vehicle: Klucel (hydroxypropylcellulose) (HPC)): 101 % of control
T/C (dose: 8.0 mg/kg/injection, schedule: Q07DX002 (ip), vehicle: Klucel (hydroxypropylcellulose) (HPC)): 69 % of control
T/C (dose: 16.0 mg/kg/injection, schedule: Q07DX002 (ip), vehicle: Klucel (hydroxypropylcellulose) (HPC)): 34 % of control
T/C (dose: 32.0 mg/kg/injection, schedule: Q07DX002 (ip), vehicle: Klucel (hydroxypropylcellulose) (HPC)): 17 % of control

Cc1cc(Nc2ccc3c(c2)OCO3)c2cc3c(cc2n1)OCO3
T/C [1]: 78 % of control and 103 % of control
T/C [2]: 96 % of control and 113 % of control and 115 % of control

CC(=O)CC(=O)CCC(=O)O
T/C (dose: 50.0 mg/kg/injection, schedule: Q07DX002 (ip), vehicle: saline): 87 % of control
T/C [3]: 88 % of control
T/C [4]: 86 % of control
T/C (dose: 400.0 mg/kg/injection, schedule: Q07DX002 (ip), vehicle: saline): 89 % of control

O=C(Cc1cccc2c(=O)cc(-c3ccccc3)oc12)OCCN1CCOCC1
T/C (dose: 50.0 mg/kg/injection, schedule: Q07DX002 (ip), vehicle: suspension in saline): 70 % of control
T/C (dose: 100.0 mg/kg/injection, schedule: Q07DX002 (ip), vehicle: suspension in saline): 49 % of control
T/C (dose: 200.0 mg/kg/injection, schedule: Q07DX002 (ip), vehicle: suspension in saline): 68 % of control
T/C (dose: 300.0 mg/kg/injection, schedule: Q07DX002 (ip), vehicle: suspension in saline): 17 % of control

CC1c2ccccc2CC(CCN(C)C)c2ccccc21 (configuration not stated)
T/C [5]: 164 % of control
T/C [6]: 84 % of control
T/C [7]: 108 % of control
T/C [8]: 69 % of control

CCCCCCCCCCCCCCCCCC(=O)Nc1ccn(C2OC(CO)C(O)C2O)c(=O)n1 (configuration not stated)
T/C [5]: 64 % of control
T/C [6]: 40 % of control
T/C [7]: 49 % of control
T/C [9]: 23 % of control

Cc1ccc(NCCN(C)C)c2c(=O)c3cc(O)ccc3sc12
T/C [10]: 86 % of control
T/C [1]: 90 % of control and 210 % of control
T/C [2]: 67 % of control
T/C [11]: 48 % of control

O=C(O)COc1cccc2c(=O)cc(-c3ccccc3)oc12
T/C [3]: 52 % of control
T/C [4]: 109 % of control

O=c1[nH]cccc1O
T/C (dose: 62.5 mg/kg/injection, schedule: Q07DX002 (ip), vehicle: saline with Tween-80): 91 % of control
T/C (dose: 125.0 mg/kg/injection, schedule: Q07DX002 (ip), vehicle: saline with Tween-80): 90 % of control and 97 % of control
T/C (dose: 250.0 mg/kg/injection, schedule: Q07DX002 (ip), vehicle: saline with Tween-80): 90 % of control and 95 % of control
T/C (dose: 500.0 mg/kg/injection, schedule: Q07DX002 (ip), vehicle: saline with Tween-80): 95 % of control and 70 % of control
T/C (dose: 1000.0 mg/kg/injection, schedule: Q07DX002 (ip), vehicle: saline with Tween-80): 74 % of control

C#CCNC1=C(C)C(=O)C2=C(C1=O)[C@H](COC(N)=O)[C@]1(OC)[C@@H]3N[C@@H]3CN21
T/C (dose: 1.5 mg/kg/injection, schedule: Q07DX002 (ip), vehicle: distilled water + Tween-80): 50 % of control
T/C (dose: 3.0 mg/kg/injection, schedule: Q07DX002 (ip), vehicle: distilled water + Tween-80): 60 % of control
T/C (dose: 6.0 mg/kg/injection, schedule: Q07DX002 (ip), vehicle: distilled water + Tween-80): 36 % of control
T/C (dose: 12.0 mg/kg/injection, schedule: Q07DX002 (ip), vehicle: distilled water + Tween-80): 9 % of control

O=C(O)CSc1c(Cl)c(=O)oc2ccc(Cl)cc12
T/C (dose: 12.5 mg/kg/injection, schedule: Q07DX002 (ip), vehicle: Klucel (hydroxypropylcellulose) (HPC)): 73 % of control
T/C [10]: 58 % of control
T/C [1]: 57 % of control
T/C [2]: 86 % of control
T/C [12]: 67 % of control

CC(=O)OC1C(O)C(C)OC(OC2C(OC(=O)C3CCC4C(C3)OC3(CC(OC(=O)/C=C/c5ccccc5)C(C)CO3)C43CO3)OC(C)C(O)C2OC(C)=O)C1O (configuration not stated)
T/C (dose: 3.75 mg/kg/injection, schedule: Q07DX002 (ip), vehicle: distilled water + Tween-80): 93 % of control
T/C (dose: 7.5 mg/kg/injection, schedule: Q07DX002 (ip), vehicle: distilled water + Tween-80): 95 % of control
T/C (dose: 15.0 mg/kg/injection, schedule: Q07DX002 (ip), vehicle: distilled water + Tween-80): 64 % of control
T/C (dose: 30.0 mg/kg/injection, schedule: Q07DX002 (ip), vehicle: distilled water + Tween-80): 168 % of control
T/C (dose: 60.0 mg/kg/injection, schedule: Q07DX002 (ip), vehicle: distilled water + Tween-80): 168 % of control

OC(C1CO1)C(O)C1CO1 (configuration not stated)
T/C (dose: 2.0 mg/kg/injection, schedule: Q07DX002 (ip), vehicle: saline): 117 % of control
T/C (dose: 4.0 mg/kg/injection, schedule: Q07DX002 (ip), vehicle: saline): 107 % of control
T/C (dose: 8.0 mg/kg/injection, schedule: Q07DX002 (ip), vehicle: saline): 57 % of control

COC(=O)NC1C(C)OC(OC2C/C=C(/C)C3C=CC4C(OC5CC(OC6CCC(OC7CC(O)C(OC8CCC(O)C(C)O8)C(C)O7)C(C)O6)C(OC(C)=O)C(C)O5)C(C)CC(C)C4C3(C)/C(O)=C3/C(=O)OC4(CC(C=O)=CC(O)C4/C=C\2C)C3=O)CC1(C)[N+](=O)[O-] (configuration not stated)
T/C (dose: 2.5 mg/kg/injection, schedule: Q07DX002 (ip), vehicle: water): 86 % of control
T/C (dose: 5.0 mg/kg/injection, schedule: Q07DX002 (ip), vehicle: water): 96 % of control
T/C (dose: 10.0 mg/kg/injection, schedule: Q07DX002 (ip), vehicle: water): 89 % of control
T/C (dose: 20.0 mg/kg/injection, schedule: Q07DX002 (ip), vehicle: water): 82 % of control

COC(=O)Nc1nc2ccc(SC)cc2c(=O)[nH]1
T/C [1]: 117 % of control
T/C [12]: 84 % of control
T/C [11]: 109 % of control

Cc1cc(NCCCCCCCCNc2cc(C)nc3cc(N(C)C)ccc23)c2ccc(N(C)C)cc2n1
T/C (dose: 3.12 mg/kg/injection, schedule: Q07DX002 (ip), vehicle: distilled water + Tween-80 + alcohol): 105 % of control
T/C (dose: 6.25 mg/kg/injection, schedule: Q07DX002 (ip), vehicle: distilled water + Tween-80 + alcohol): 78 % of control
T/C (dose: 12.5 mg/kg/injection, schedule: Q07DX002 (ip), vehicle: distilled water + Tween-80 + alcohol): 69 % of control
T/C (dose: 25.0 mg/kg/injection, schedule: Q07DX002 (ip), vehicle: distilled water + Tween-80 + alcohol): 160 % of control

CN(C)c1ccc2c(SCC(=O)OCC(=O)[C@@]3(O)CC[C@H]4[C@@H]5CCC6=CC(=O)C=C[C@]6(C)[C@H]5C(=O)C[C@@]43C)c3ccc(N(C)C)cc3nc2c1
T/C [1]: 105 % of control
T/C [2]: 78 % of control
T/C [12]: 81 % of control
T/C [11]: 82 % of control
T/C [13]: 16 % of control

COc1cc(C)c(C2NC(=O)c3ccccc3N2)cc1C (configuration not stated)
T/C (dose: 450.0 mg/kg/injection, schedule: Q07DX002 (ip), vehicle: Klucel (hydroxypropylcellulose) (HPC)): 70 % of control
T/C (dose: 900.0 mg/kg/injection, schedule: Q07DX002 (ip), vehicle: Klucel (hydroxypropylcellulose) (HPC)): 53 % of control
T/C (dose: 1800.0 mg/kg/injection, schedule: Q07DX002 (ip), vehicle: Klucel (hydroxypropylcellulose) (HPC)): 115 % of control
T/C (dose: 3600.0 mg/kg/injection, schedule: Q07DX002 (ip), vehicle: Klucel (hydroxypropylcellulose) (HPC)): 55 % of control

O=C1N[C@H]2[C@H](O)[C@H](O)[C@@H](O)[C@H](O)[C@@H]2c2cc3c(c(O)c21)OCO3
T/C (dose: 0.88 mg/kg/injection, schedule: Q01DX008 (ip), vehicle: saline + alcohol): 113 % of control
T/C (dose: 1.75 mg/kg/injection, schedule: Q01DX008 (ip), vehicle: saline + alcohol): 105 % of control
T/C (dose: 3.5 mg/kg/injection, schedule: Q01DX008 (ip), vehicle: saline + alcohol): 88 % of control

O=C1CC2(C(=O)N1CN1CCOCC1)c1ccccc1-c1ccccc12
T/C [1]: 99 % of control
T/C [2]: 44 % of control
T/C [12]: 107 % of control
T/C [11]: 79 % of control
T/C [13]: 56 % of control

O=C(COc1cccc2c(=O)cc(-c3ccccc3)oc12)OCCN1CCOCC1
T/C [3]: 81 % of control
T/C [4]: 43 % of control

O=[N+]([O-])c1ccc(N(CCO)CCO)c2c1no[n+]2[O-]
T/C [6]: 85 % of control
T/C [7]: 63 % of control

NS(=O)(=O)OCCCCCCCOS(N)(=O)=O
T/C [5]: 214 % of control
T/C [6]: 270 % of control
T/C [7]: 192 % of control
T/C [9]: 94 % of control
T/C [8]: 104 % of control
